Test results published in patent publication US10245239B2, “Astaxanthin anti-inflammatory synergistic combinations” (Lycored Ltd., priority 2013, dated 2019).

What was measured:
[1] = system: LPS-stimulated macrophages; assay: NO production by LPS-stimulated macrophages; type: cell-based, ICR mice; conditions: astaxanthin alone, FIG. 1
Protocol: (§1) 100 U/ml penicillin. […] streptomycin (Beit-Haemek, Israel).
(§2) The anti-inflammatory effect was detected by inhibition of NO production and of TNF alpha production by LPS-stimulated macrophages.
NO levels in supernatants of cell cultures were determined by assaying nitrite levels using Griess reagent and sodium nitrite as a standard.

[2] = system: LPS-stimulated macrophages; assay: TNF-alpha production by LPS-stimulated macrophages (ELISA); type: cell-based, ICR mice; conditions: astaxanthin alone, FIG. 3
Protocol: as §1
Concentrations of TNF-alpha in cell culture supernatants were quantified by ELISA kits (Biolegend, SanDiego, Calif., USA).
as §2

Structure (SMILES): CC1=C(/C=C/C(C)=C/C=C/C(C)=C/C=C/C=C(C)/C=C/C=C(C)/C=C/C2=C(C)C(=O)[C@@H](O)CC2(C)C)C(C)(C)C[C@H](O)C1=O [astaxanthin]
- inhibition of NO production [1]: in a dose dependent manner
- inhibition of TNF alpha production [2]: in a dose dependent manner
